The term inhibition denotes the drop in the measured response relative to a control, in per cent.

SMILES strings stand for the structures.

The target of the series is MDR1 (ABCB1, P-glycoprotein) (Homo sapiens, UniProt P08183). Description: Inhibition of MDR1 in multidrug resistant human A2780/DX3 cells assessed as accumulation of doxorubicin at 5 times compound concentration that giving 5% antiproliferative activity after 4 hrs by cytofluorimetric assay relative to (Z)-8-(4-chlorophenyl)-5-methyl-8-(pent-2-enyl-oxy)-[1,2,4]oxadiazolo[3,4-c][1,4]thiazin-3(8H)-one. It counts as cell-based, A2780 ADR. The following applies: probe doxorubicin.
Chain of MDR1 (ABCB1, P-glycoprotein) (P08183 whole entry): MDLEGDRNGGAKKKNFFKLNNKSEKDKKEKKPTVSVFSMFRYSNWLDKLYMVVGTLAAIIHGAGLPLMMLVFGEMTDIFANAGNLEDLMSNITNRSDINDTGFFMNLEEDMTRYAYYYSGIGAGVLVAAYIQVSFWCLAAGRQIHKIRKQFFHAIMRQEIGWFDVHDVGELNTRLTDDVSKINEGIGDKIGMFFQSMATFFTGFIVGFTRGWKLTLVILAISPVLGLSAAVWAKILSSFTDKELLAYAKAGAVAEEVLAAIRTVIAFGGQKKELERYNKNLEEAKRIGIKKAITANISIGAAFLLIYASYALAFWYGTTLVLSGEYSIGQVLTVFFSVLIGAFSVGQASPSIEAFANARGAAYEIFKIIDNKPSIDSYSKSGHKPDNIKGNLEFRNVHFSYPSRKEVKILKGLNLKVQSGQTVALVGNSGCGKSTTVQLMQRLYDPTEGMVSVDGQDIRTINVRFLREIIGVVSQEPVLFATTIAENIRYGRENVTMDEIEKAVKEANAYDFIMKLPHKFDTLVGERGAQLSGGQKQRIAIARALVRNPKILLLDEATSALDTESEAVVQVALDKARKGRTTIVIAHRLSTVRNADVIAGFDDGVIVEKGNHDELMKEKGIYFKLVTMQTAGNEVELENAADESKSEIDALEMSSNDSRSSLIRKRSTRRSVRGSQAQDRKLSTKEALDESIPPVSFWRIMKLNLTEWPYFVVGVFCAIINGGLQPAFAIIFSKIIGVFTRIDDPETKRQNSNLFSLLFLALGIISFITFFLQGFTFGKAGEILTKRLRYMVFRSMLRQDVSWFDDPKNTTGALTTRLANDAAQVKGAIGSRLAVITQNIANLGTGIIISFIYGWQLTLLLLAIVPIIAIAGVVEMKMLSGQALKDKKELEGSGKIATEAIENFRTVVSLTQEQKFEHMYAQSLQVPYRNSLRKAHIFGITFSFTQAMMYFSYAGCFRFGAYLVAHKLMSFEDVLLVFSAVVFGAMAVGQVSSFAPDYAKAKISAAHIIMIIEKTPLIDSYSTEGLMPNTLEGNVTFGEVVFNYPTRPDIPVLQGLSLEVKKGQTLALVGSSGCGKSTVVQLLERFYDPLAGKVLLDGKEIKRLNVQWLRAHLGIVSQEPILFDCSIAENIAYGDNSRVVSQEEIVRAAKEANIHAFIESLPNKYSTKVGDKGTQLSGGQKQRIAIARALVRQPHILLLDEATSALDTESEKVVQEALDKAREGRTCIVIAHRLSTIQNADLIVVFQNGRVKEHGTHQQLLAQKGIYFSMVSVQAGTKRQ

For `CC/C=C\CO[C@]1(c2ccc(Cl)cc2)SC=C(C)n2c1noc2=O`, the inhibition at 4 h was found to be 48%. Consider `CC/C=C\CO[C@@]1(c2ccc(Cl)cc2)SC=C(C)n2c1noc2=O`, for which the inhibition at 4 h turned out to be 136%. `CCCCCCOC1(c2ccc(Br)cc2)SC=C(C)n2c1noc2=O` (racemic): the inhibition at 4 h is 72%. `CC/C=C/COC1(c2ccc(Cl)cc2)SC=C(C)n2c1noc2=O` (racemic): the inhibition at 4 h came to 35%.

Regarding `CCC/C=C\COC1(c2ccc(Cl)cc2)SC=C(C)n2c1noc2=O` (racemic), the inhibition at 4 h is 131%. Consider `CCC/C=C/COC1(c2ccc(Cl)cc2)SC=C(C)n2c1noc2=O` (racemic), for which the inhibition at 4 h is 109%. For `CCCCCCOC1(c2ccc(Cl)cc2)SC=C(C)n2c1noc2=O` (racemic), the inhibition at 4 h came to 18%. For `CC/C=C\COC1(c2ccc(Br)cc2)SC=C(C)n2c1noc2=O` (racemic), the inhibition at 4 h came to 139%.

These data come from ChEMBL document CHEMBL2406943, “ABCB1 Structural Models, Molecular Docking, and Synthesis of New Oxadiazolothiazin-3-one Inhibitors” (ACS Med Chem Lett, 2013).
